This note sets out measurements from ChEMBL document CHEMBL1147653, “Identification of type 1 inosine monophosphate dehydrogenase as an antiangiogenic drug target” (J Med Chem, 2006).

Broadly, the inhibition is the percentage by which the read-out fell short of the control. Usually IC50 stands for the point on the concentration scale where inhibition reaches its midpoint. A higher IC50 goes with a need for much substance. One may read the Inhibition as the relative decrease from the control value, in per cent. A word on the inhibition in vivo: it is the percentage by which the read-out fell short of the control. High values mean a response far below the control, low ones a response near the control.

Activity calls are given as the source filed them. No cut-off for these calls is given here.

Test [1] concerns HUVEC. Put plainly: Cell cycle arrest at G2/M phase in HUVEC at 1 uM. Format: functional. To be noted: Homo sapiens.
Test [2] deals with HUVEC. Put plainly: Cell cycle arrest at S phase in HUVEC at 1 uM. The format is functional. To be noted: Homo sapiens.
In test [3] the test system is Jurkat. Put plainly: Antiproliferative activity against Jurkat T cells as measured by [3H]thymidine incorporation. Format: functional, cell-based. To be noted: Homo sapiens. (In general: Incorporation of labelled thymidine or its analogues reports DNA synthesis.)
Test [4] has as its system HUVEC. Briefly: Cell cycle arrest at G2/M phase in HUVEC at 1 uM in presence of 50 uM guanosine. Format: functional, Homo sapiens.
For test [5], the system named is HUVEC. Briefly: Antiproliferative activity against HUVEC in presence of 20 uM guanine as measured by [3H]thymidine incorporation. Format: functional, cell-based. To be noted: Homo sapiens.
For test [6], the system named is Jurkat. Briefly: Antiproliferative activity against Jurkat T cells in presence of 20 uM guanine as measured by [3H]thymidine incorporation. The format is functional, cell-based. To be noted: Homo sapiens.
Test [7] is filed under the species Mus musculus. Put plainly: Inhibition of tumor-induced angiogenesis in RENCA mouse model. Format: functional, organism-based.
The test system of test [8] is HUVEC. Put plainly: Cell cycle arrest at G1 phase in HUVEC at 1 uM in presence of 50 uM guanosine. The format is functional, Homo sapiens.
Test [9] has as its system Mus musculus. Put plainly: Antiangiogenic activity in mouse at 60 mg/kg/day, sc. Format: functional. To be noted: route subcutaneous.
Test [10] has as its system HUVEC. Put plainly: Cell cycle arrest at G1 phase in HUVEC at 1 uM. The format is functional. To be noted: Homo sapiens.
Test [11] has as its system HUVEC. Put plainly: Cell cycle arrest at S phase in HUVEC at 1 uM in presence of 50 uM guanosine. Format: functional, Homo sapiens.
For test [12], the system named is HUVEC. Briefly: Antiproliferative activity against HUVEC as measured by [3H]thymidine incorporation. The format is functional, cell-based. To be noted: Homo sapiens.

As for `COc1c(C)c2c(c(O)c1C/C=C(\C)CCC(=O)O)C(=O)OC2` [MYCOPHENOLIC ACID], the inhibition at 1 µM in test [1] was found to be 12.4%; in test [2], 6.5%; in test [10], 81%. In addition, the results for the IC50 in test [3] and in [12] were 128 nM and 99.2 nM, respectively. Moreover, the figures for the Inhibition in test [4], in test [8] and in test [11] were 17%, 71% and 11.8%, respectively. For the same compound, the result in [5] and in [6] was inactive. Further, the inhibition entry in [7] is “Dose-dependent effect”. Further, the inhibition in vivo at 60 mg/kg/day in [9] was 69%.
